Measurements as given in patent US20250186600A1, “EXCIPIENT COMPOUNDS FOR PROTEIN FORMULATIONS” (Comera Life Sciences, Inc., priority 2020, published 2025).
Several values for one entry are separate records, joined by “and”; a condition that tells them apart may be missing. Identical values can stand only once. Counter-ions that a name gives are not always drawn.

Columns and labels:
[1] = tested on: bovine gamma globulin (BGG); assay: Normalized viscosity of BGG with caffeine and a secondary excipient (Example 40); assay type: physicochemical; details: Excipient A caffeine 15 mg/mL + Excipient B 12 mg/mL; BGG about 280 mg/mL, 20 mM histidine pH 6, 25° C.
infliximab = assay: Thermal degradation assay at 55° C., normalized monomer loss rate by HP-SEC (Example 51); assay type: physicochemical; details: infliximab about 2 mg/mL, 20 mM phosphate pH 7, 55° C.
Description: ® infliximab was obtained from the Clinigen Group and reconstituted according to the instructions in the Janssen package insert, resulting in a 10 mg/mL infliximab solution in 5 mM phosphate buffer, pH about 7, with 50 mg/mL sucrose and 0.05 mg/mL polysorbate 80. The reconstituted drug product was then combined 1:1 by volume with 50 mM sodium acetate buffer at pH 5. The resulting solution was then injected onto a small preparative scale cation exchange column (GE Healthcare, Chicago, IL). After the infliximab was loaded onto the column, the column was washed with 10 column volumes of 50 mM sodium acetate buffer, pH 5. The infliximab was then eluted from the column with five column volumes of a 250 mM sodium chloride, 50 mM sodium acetate buffer at pH 5. […] Stock solutions of either 4 or 8 mg/mL infliximab in 20 mM phosphate buffer at pH 7 were then used in subsequent tests.
All excipients used in this Example, listed in Table 52 below, were of the highest purity, and were obtained from Sigma Aldrich (St. Louis, MO) or Cayman Chemical (Ann Arbor, MI). The stock infliximab solutions were mixed with stock excipient solutions containing the excipients listed in Table 52 formulated in 20 mM phosphate buffer, pH 7 to achieve a final infliximab concentration of about 2 mg/mL in each sample. The samples containing the infliximab solutions and the stock excipient solutions were then aliquoted into five 100 μL aliquots in PCR tubes. […] These stressed samples were then analyzed for monomer content by high performance size exclusion chromatography (HP-SEC) using an Agilent 1100 series HPLC equipped with a diode array detector monitoring absorbance at 280 nm. […] For each sample, the monomer peak area was divided by the monomer peak area obtained from an identical but unstressed sample to obtain the percent monomer remaining after exposure to thermal stress. The remaining monomer as a percentage of the unstressed sample was then plotted as a function of incubation time and the absolute value of the slope of a linear fit to the data was recorded as the monomer loss rate.

omalizumab [2] = assay: DLS viscosity of concentrated omalizumab (Example 53); assay type: physicochemical; design: key to DLS Viscosity, Replicate 1: observation on combining excipient with protein / DLS Viscosity, Replicate 2: observation on combining excipient with protein: * Combination of excipient with protein resulted in reversible precipitation; details: 20 mM HisHCl pH 6; for DLS Viscosity, Replicate 1 / DLS Viscosity, Replicate 2: concentrated omalizumab 9 parts : 1 part excipient stock (1 M or solubility limit)
Description: O-(octylphosphoryl)choline was purchased from Sigma Aldrich (St. […] O-(octylphosphoryl)choline was used as a stock excipient without additional preparation. […] In this example, the ratio of apparent radius to the actual radius of the gold nanoparticle was multiplied by the viscosity of water at 25° C. to calculate the viscosity of the protein formulation in centipoise (cP).

ustekinumab [3] = assay: Urea denaturation, Sypro orange fluorescence (Example 44); assay type: physicochemical; details: excipient 5 mg/mL, ustekinumab 1 mg/mL, 6M urea, 20 mM histidine pH 6.0, Sypro orange fluorescence
From the text: It is known that urea denatures proteins in solution and causes them to unfold. The screening methodology in this example involved adding a specific concentration of urea to a therapeutic protein solution such as ustekinumab. […] One method to track protein unfolding involves the use of extrinsic fluorescent dyes such as Sypro orange. Sypro orange binds to hydrophobic regions in the unfolded protein structure, leading to an increase in the fluorescence signal observed. Measuring the differences in the fluorescence intensity of unfolded protein-Sypro orange complex in presence of different excipients thus allows one to identify any stabilizing effects.
All excipients used in this Example, listed in Table 45 below, were of the highest purity, and were obtained from Sigma Aldrich (St. Louis, MO) or Cayman Chemical (Ann Arbor, MI). […] This urea stock solution was then added to a final concentration of 6M to produce the test solutions (excipient plus protein plus urea). […] The pH of the mixture was rechecked and confirmed to be at pH 6.0. The test solutions were allowed to incubate at room temperature for 30 min.

ustekinumab [4] = assay: Stabilization at low pH, Sypro orange fluorescence (Example 45); details: excipient 5 mg/mL, ustekinumab 1 mg/mL, glycine acidification buffer pH 2.6, Sypro orange fluorescence
[5] = Caffeine solubility with co-solutes during refrigerated storage (Example 61); assay type: physicochemical; design: key: (PPT)—precipitate observed; (—)—clear solution observed; details: 50 mM co-solute, 25 mM histidine pH 6, stored 2 to 5° C.
Description: The resulting microplates were then sealed with microplate tape and stored in a refrigerator with the temperature maintained in the range of 2 to 5° C. Over the course of storage, the microplates were visually observed for evidence of precipitate in the well.

omalizumab [6] = assay: DLS viscosity of concentrated omalizumab (Example 54); assay type: physicochemical; details: concentrated omalizumab 9 parts : 1 part excipient stock (1 M or solubility limit), 20 mM HisHCl pH 6
Description: Hordenine HCl was purchased from Bulk Supplements (Henderson, NV).
The concentrated protein formulation was then combined with a stock excipient solution or a control at a ratio of 9 parts protein: 1 part excipient solution or buffer (for the control), and aliquots were added to the wells of a 384 well microplate (Aurora Microplates, Whitefish, MT). […] After the microplate was shaken, 2 microliters of a 5-fold dilution of polyethylene glycol surface-modified gold nanoparticles having a diameter of 100 nm (nanoComposix, San Diego, CA) in 20 mM His HCl were added to each sample well. […] In this example, the ratio of apparent radius to the actual radius of the gold nanoparticle was multiplied by the viscosity of water at 25° C. to calculate the viscosity of the protein formulation in centipoise (cP).

[7] = concentrated omalizumab 9 parts : 1 part excipient stock

CC(=O)[O-].[Na+] [Sodium acetate]
Normalized Viscosity [1]: 0.77

Cl.N=C(N)NCCC[C@H](N)C(=O)O [Arg HCl]
Monomer loss rate (infliximab; excipient 125 mM): 0.1186 % mon/min | Normalized monomer loss rate (infliximab; excipient 125 mM): 0.740

CCN(CC)CCOC(=O)C1(C2CCCCC2)CCCCC1 [Dicyclomine HCl]
DLS Viscosity, Replicate 1: observation on combining excipient with protein (omalizumab [2]; [7]): * | DLS Viscosity, Replicate 2: observation on combining excipient with protein (omalizumab [2]; [7]): *

OC(CCN1CCCCC1)(c1ccccc1)c1ccccc1 [Pridinol Methanesulfonate]
DLS Viscosity, Replicate 1 (omalizumab [2]): 45.5 cP | DLS Viscosity, Replicate 2 (omalizumab [2]): 36.2 cP

CC(O)(P(=O)(O)O)P(=O)(O)O [Etidronate]
Monomer loss rate (infliximab; excipient 25 mM): 0.0824 % mon/min | Normalized monomer loss rate (infliximab; excipient 25 mM): 0.514 | Monomer loss rate (infliximab; excipient 50 mM): 0.0685 % mon/min | Normalized monomer loss rate (infliximab; excipient 50 mM): 0.428 | Monomer loss rate (infliximab; excipient 100 mM): 0.0321 % mon/min and 0.0284 % mon/min | Normalized monomer loss rate (infliximab; excipient 100 mM): 0.200 and 0.177

CCCCCCCCOP(=O)([O-])OCC[N+](C)(C)C [O-(octylphosphoryl)choline]
DLS Viscosity, Replicate 1 (omalizumab [2]): 35.6 cP | DLS Viscosity, Replicate 2 (omalizumab [2]): 35.4 cP

OC[C@@H](O)[C@@H](O)[C@H](O)[C@@H](O)CO [Sorbitol]
Monomer loss rate (infliximab; excipient 200 mM): 0.0656 % mon/min | Normalized monomer loss rate (infliximab; excipient 200 mM): 0.409

O[C@H]1[C@H](O)[C@@H](O)CN2CC[C@H](O)[C@H]12 [Castanospermine]
% increased stability (ustekinumab [3]): 7.0% | % change in stability (ustekinumab [4]): 95.9%

NCCCNCCCCNCCCN [Spermine]
% increased stability (ustekinumab [3]): 16.8% | % change in stability (ustekinumab [4]): 90.0%

NCCCCNCCCN [Spermidine]
% increased stability (ustekinumab [3]): 12.9% | % change in stability (ustekinumab [4]): 98.1%

NC[C@H]1O[C@H](O[C@H]2[C@H](O)[C@@H](O)[C@H](N)C[C@@H]2N)[C@H](N)[C@@H](O)[C@@H]1O [Neamine]
% increased stability (ustekinumab [3]): 2.8% | % change in stability (ustekinumab [4]): 5.9%

NCCSSCCN [Cystamine]
% increased stability (ustekinumab [3]): 8.8% | % change in stability (ustekinumab [4]): 17.8%

NC(=O)c1cccnc1 [Nicotinamide]
Day 1 (visual observation for precipitate) ([5]; caffeine 7.5 mg/mL): — | Day 7 (visual observation for precipitate) ([5]; caffeine 7.5 mg/mL): — | Day 18 (visual observation for precipitate) ([5]; caffeine 7.5 mg/mL): — | Day 27 (visual observation for precipitate) ([5]; caffeine 7.5 mg/mL): — | Day 56 (visual observation for precipitate) ([5]; caffeine 7.5 mg/mL): — | Day 1 (visual observation for precipitate) ([5]; caffeine 10 mg/mL): — | Day 7 (visual observation for precipitate) ([5]; caffeine 10 mg/mL): — | Day 18 (visual observation for precipitate) ([5]; caffeine 10 mg/mL): — | Day 27 (visual observation for precipitate) ([5]; caffeine 10 mg/mL): — | Day 56 (visual observation for precipitate) ([5]; caffeine 10 mg/mL): — | Day 1 (visual observation for precipitate) ([5]; caffeine 12.5 mg/mL): — | Day 7 (visual observation for precipitate) ([5]; caffeine 12.5 mg/mL): — | Day 18 (visual observation for precipitate) ([5]; caffeine 12.5 mg/mL): — | Day 27 (visual observation for precipitate) ([5]; caffeine 12.5 mg/mL): — | Day 56 (visual observation for precipitate) ([5]; caffeine 12.5 mg/mL): — | Day 1 (visual observation for precipitate) ([5]; caffeine 15 mg/mL): — | Day 7 (visual observation for precipitate) ([5]; caffeine 15 mg/mL): — | Day 18 (visual observation for precipitate) ([5]; caffeine 15 mg/mL): — | Day 27 (visual observation for precipitate) ([5]; caffeine 15 mg/mL): — | Day 56 (visual observation for precipitate) ([5]; caffeine 15 mg/mL): PPT | Day 1 (visual observation for precipitate) ([5]; caffeine 20 mg/mL): — | Day 7 (visual observation for precipitate) ([5]; caffeine 20 mg/mL): — | Day 18 (visual observation for precipitate) ([5]; caffeine 20 mg/mL): PPT | Day 27 (visual observation for precipitate) ([5]; caffeine 20 mg/mL): PPT | Day 56 (visual observation for precipitate) ([5]; caffeine 20 mg/mL): PPT | % increased stability (ustekinumab [3]): 2.7%

CCCCn1ccnc1 [Excipient 1-butylimidazole, 1-butylimidazole]
DLS Viscosity, Replicate 1 (omalizumab [6]): 40.5 cP | DLS Viscosity, Replicate 2 (omalizumab [6]): 74.0 cP | DLS Viscosity, Replicate 1 (omalizumab [2]): 16.8 cP | DLS Viscosity, Replicate 2 (omalizumab [2]): 15.6 cP

[Cl-].[Na+] [NaCl]
Monomer loss rate (infliximab; excipient 150 mM): 0.0727 % mon/min | Normalized monomer loss rate (infliximab; excipient 150 mM): 0.454

CCCCCCn1ccnc1 [Excipient 1-hexylimidazole, 1-hexylimidazole]
DLS Viscosity, Replicate 1 (omalizumab [6]): 27.0 cP | DLS Viscosity, Replicate 2 (omalizumab [6]): 33.1 cP | DLS Viscosity, Replicate 1 (omalizumab [2]): 13.6 cP | DLS Viscosity, Replicate 2 (omalizumab [2]): 14.0 cP

O=S(=O)(O)CCN1CCN(CCO)CC1 [HEPES]
DLS Viscosity, Replicate 1 (omalizumab [2]): 15.9 cP | DLS Viscosity, Replicate 2 (omalizumab [2]): 17.4 cP

CCNC(=O)CC[C@H](N)C(=O)O [Theanine]
% increased stability (ustekinumab [3]): 6.1% | % change in stability (ustekinumab [4]): 8.3%
